Source: ChEMBL document CHEMBL1201862, “PubChem BioAssay data set” (2004)
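Dose response: 5 concentrations. Exposure: 48 h. Format: 96-well plates. Endpoint: linear interpolation; highest concentration if not reached. GI50: concentration for 50% inhibition of growth.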 Active and inactive are the calls of the source. No stated cut-off is given here; in the data, active = GI50 up to about 1.1 µM and inactive = higher.

Legend:
Assay in all cases: growth of human tumour cells (NCI), 48 h
[1] = test system: ACHN
[2] = test system: DU-145
[3] = test system: HCT-116
[4] = test system: HL-60
[5] = test system: HOP-62
[6] = test system: HT-29
[7] = test system: Hs-578T
[8] = test system: M14
[9] = test system: MCF7
[10] = test system: NCI-H226
[11] = test system: NCI-H522
[12] = test system: OVCAR-5
[13] = test system: PC-3
[14] = test system: SK-MEL-28
[15] = test system: SK-MEL-2
[16] = test system: SK-MEL-5
[17] = test system: SN12C
[18] = test system: TK-10
[19] = test system: U-251
[20] = test system: UO-31

SMILES | GI50 [1] | GI50 [2] | GI50 [3] | GI50 [4] | GI50 [5] | GI50 [6] | GI50 [7] | GI50 [8] | GI50 [9] | GI50 [10] | GI50 [11] | GI50 [12] | GI50 [13] | GI50 [14] | GI50 [15] | GI50 [16] | GI50 [17] | GI50 [18] | GI50 [19] | GI50 [20]
CCN1CCC(O)(c2ccc(Oc3ccc(Cl)cc3)cc2)C(C(=O)c2ccc(Oc3ccc(Cl)cc3)cc2)C1 (centres undefined) | 14 µM (inactive) | 16.5 µM (inactive) | 3.78 µM (inactive) | 1.8 µM (inactive) | 9.48 µM (inactive) | 5.07 µM (inactive) | 20.7 µM (inactive) | 14 µM (inactive) | 5.41 µM (inactive) | 15 µM (inactive) | 2.83 µM (inactive) | 13.5 µM (inactive) | 9.57 µM (inactive) | 20.5 µM (inactive) | 21.9 µM (inactive) | 12.2 µM (inactive) | 13.7 µM (inactive) | 10.6 µM (inactive) | > 10 µM (inactive) | 13.6 µM (inactive)
Cc1cc(Cl)ccc1OCC(=O)Oc1c(Cl)c(Cl)c(Cl)c(Cl)c1Cl | 28.2 µM (inactive) | 22.4 µM (inactive) | 20.8 µM (inactive) | > 100 µM (inactive) | 21.4 µM (inactive) | 26.7 µM (inactive) | 22.6 µM (inactive) | 26.6 µM (inactive) | 26.8 µM (inactive) | 20.2 µM (inactive) | 17.9 µM (inactive) | 24.4 µM (inactive) | 28.2 µM (inactive) | 27.7 µM (inactive) | 24.2 µM (inactive) | 22.9 µM (inactive) | 25.4 µM (inactive) | 30.3 µM (inactive) | 24.4 µM (inactive) | 17.1 µM (inactive)
O=CCCCCCOCc1ccccc1 | 36.9 µM (inactive) | 71.9 µM (inactive) | 27 µM (inactive) | 11.6 µM (inactive) | 29.4 µM (inactive) | > 100 µM (inactive) | > 100 µM (inactive) | > 100 µM (inactive) | 54.8 µM (inactive) | > 73.6 µM (inactive) | 20.7 µM (inactive) | > 100 µM (inactive) | > 100 µM (inactive) | > 100 µM (inactive) | > 100 µM (inactive) | 25.4 µM (inactive) | 17.7 µM (inactive) | 99.5 µM (inactive) | 69.5 µM (inactive) | > 87.1 µM (inactive)
COc1cccc2c1C(=O)C(=O)c1c-2oc(=O)c2cc(C)cc(OC)c12 | > 75 µM (inactive) | 13.6 µM (inactive) | 27.4 µM (inactive) | 25.7 µM (inactive) | 15.9 µM (inactive) | 22.6 µM (inactive) | 19.6 µM (inactive) | 25.3 µM (inactive) | 23.7 µM (inactive) | 72.8 µM (inactive) | 14.1 µM (inactive) | > 75 µM (inactive) | 37.8 µM (inactive) | 53.6 µM (inactive) | 16 µM (inactive) | 17 µM (inactive) | 53.8 µM (inactive) | > 75 µM (inactive) | 12.8 µM (inactive) | 35 µM (inactive)
COc1cccc2c1C(=O)c1c(O)c3c(c(O)c1C2=O)CC(O)(C(O)CO)CC3OC1CC2C(OC3COCC(C#N)N32)C(C)O1 (centres undefined) | < 0.01 µM (active) | < 0.01 µM (active) | < 0.01 µM (active) | < 0.01 µM (active) | < 0.01 µM (active) | < 0.01 µM (active) | < 0.01 µM (active) | < 0.01 µM (active) | < 0.01 µM (active) | < 0.01 µM (active) | < 0.01 µM (active) | < 0.01 µM (active) | < 0.01 µM (active) | < 0.01 µM (active) | < 0.01 µM (active) | < 0.01 µM (active) | < 0.01 µM (active) | < 0.01 µM (active) | < 0.01 µM (active) | < 0.01 µM (active)
COc1cc(Cn2c(=S)ss/c2=N\C(=S)N(C)C)cc(OC)c1OC | 7.06 µM (inactive) | > 28.5 µM (inactive) | 4.53 µM (inactive) | 2.05 µM (inactive) | 13.3 µM (inactive) | 4.04 µM (inactive) | 2.7 µM (inactive) | 4.73 µM (inactive) | 3.64 µM (inactive) | 24.3 µM (inactive) | 2.3 µM (inactive) | > 68.9 µM (inactive) | 3.35 µM (inactive) | 10 µM (inactive) | 4.46 µM (inactive) | 2.26 µM (inactive) | > 50.2 µM (inactive) | 34.8 µM (inactive) | 4.61 µM (inactive) | 24.3 µM (inactive)
Cc1cccc(/N=N/c2c(C)nn(C(=O)CC(=O)Nc3ccccc3)c2C)c1 | > 100 µM (inactive) | > 100 µM (inactive) | > 100 µM (inactive) | > 100 µM (inactive) | > 100 µM (inactive) | > 100 µM (inactive) | > 100 µM (inactive) | > 100 µM (inactive) | > 100 µM (inactive) | > 100 µM (inactive) | > 100 µM (inactive) | > 100 µM (inactive) | > 100 µM (inactive) | > 100 µM (inactive) | > 100 µM (inactive) | > 100 µM (inactive) | > 100 µM (inactive) | > 100 µM (inactive) | > 100 µM (inactive) | > 100 µM (inactive)
CC(N/N=C(\S)N1CCCCCC1)c1cccnn1 (centres undefined) | 0.294 µM (active) | 0.579 µM (active) | 0.325 µM (active) | 0.114 µM (active) | 0.374 µM (active) | 0.483 µM (active) | 13.2 µM (inactive) | 0.319 µM (active) | 0.258 µM (active) | 0.618 µM (active) | 0.2 µM (active) | 0.316 µM (active) | 0.104 µM (active) | 0.482 µM (active) | 1.27 µM (inactive) | 0.248 µM (active) | 0.484 µM (active) | 0.706 µM (active) | 0.326 µM (active) | 0.526 µM (active)
O=[N+]([O-])C(=C1NCCN1)/C(Cl)=C(\Cl)Br | 38.2 µM (inactive) | > 100 µM (inactive) | 28.8 µM (inactive) | 10.6 µM (inactive) | > 100 µM (inactive) | 30.1 µM (inactive) | > 100 µM (inactive) | 38.3 µM (inactive) | 30.3 µM (inactive) | > 81.8 µM (inactive) | 19.1 µM (inactive) | > 100 µM (inactive) | > 59.4 µM (inactive) | 32 µM (inactive) | 45.6 µM (inactive) | 51.9 µM (inactive) | 41.2 µM (inactive) | > 72.4 µM (inactive) | 49.3 µM (inactive) | 84.1 µM (inactive)
Nc1nc(Cl)cc(NCC2(CO)CCC(O)C2)n1 (centres undefined) | > 100 µM (inactive) | > 100 µM (inactive) | > 100 µM (inactive) | > 100 µM (inactive) | > 100 µM (inactive) | > 100 µM (inactive) | > 100 µM (inactive) | > 100 µM (inactive) | > 100 µM (inactive) | > 100 µM (inactive) | > 100 µM (inactive) | > 100 µM (inactive) | > 100 µM (inactive) | > 100 µM (inactive) | > 100 µM (inactive) | > 100 µM (inactive) | > 100 µM (inactive) | > 100 µM (inactive) | > 100 µM (inactive) | > 100 µM (inactive)
O=C(Nc1sccc1S(=O)(=O)c1ccc(Cl)cc1)c1ccc(F)cc1F | 32.1 µM (inactive) | 53.1 µM (inactive) | 45.8 µM (inactive) | > 100 µM (inactive) | 24.9 µM (inactive) | > 100 µM (inactive) | 26.2 µM (inactive) | > 100 µM (inactive) | 40.5 µM (inactive) | 26.7 µM (inactive) | 20.3 µM (inactive) | 27.8 µM (inactive) | 27.2 µM (inactive) | > 100 µM (inactive) | 18.9 µM (inactive) | 49.4 µM (inactive) | 56.8 µM (inactive) | 20.9 µM (inactive) | 19.2 µM (inactive) | 22.2 µM (inactive)
COc1ccc(-c2cc(=O)c3c(O)cc(C)cc3o2)cc1OC | > 100 µM (inactive) | > 100 µM (inactive) | > 100 µM (inactive) | > 100 µM (inactive) | > 100 µM (inactive) | > 100 µM (inactive) | > 100 µM (inactive) | > 100 µM (inactive) | > 100 µM (inactive) | > 100 µM (inactive) | > 100 µM (inactive) | > 100 µM (inactive) | > 100 µM (inactive) | > 100 µM (inactive) | > 100 µM (inactive) | > 100 µM (inactive) | > 100 µM (inactive) | > 100 µM (inactive) | > 100 µM (inactive) | > 100 µM (inactive)
CCCN(CCC)C(=O)c1c(N2CCN(C)CC2)c2cccnc2n2c(C)cnc12 | > 100 µM (inactive) | > 100 µM (inactive) | > 100 µM (inactive) | > 100 µM (inactive) | > 100 µM (inactive) | > 100 µM (inactive) | > 100 µM (inactive) | > 100 µM (inactive) | > 100 µM (inactive) | > 100 µM (inactive) | 33.1 µM (inactive) | > 100 µM (inactive) | > 100 µM (inactive) | > 100 µM (inactive) | > 100 µM (inactive) | > 100 µM (inactive) | > 100 µM (inactive) | > 100 µM (inactive) | > 100 µM (inactive) | 70 µM (inactive)
NC(=O)NC(=O)c1cccc(NC(=O)CI)c1 | < 0.017 µM (active) | 0.0344 µM (active) | < 0.01 µM (active) | < 0.01 µM (active) | 0.103 µM (active) | < 0.0178 µM (active) | 0.0398 µM (active) | – | < 0.01 µM (active) | < 0.0367 µM (active) | < 0.01 µM (active) | 0.151 µM (active) | 0.0316 µM (active) | 0.389 µM (active) | 0.0361 µM (active) | < 0.0105 µM (active) | < 0.0197 µM (active) | < 0.0146 µM (active) | 0.0291 µM (active) | 0.162 µM (active)
